Where two headings read alike, the source gives them in different places.
Experiments:
AURKA = target: T1, AURKA (Homo sapiens, UniProt O14965); type: cell-based; conditions: Jurkat cells, 24 h, Table 2
T1 construct: endogenous in cells; host or cells: Jurkat cells
T1 sequence (O14965 1-403): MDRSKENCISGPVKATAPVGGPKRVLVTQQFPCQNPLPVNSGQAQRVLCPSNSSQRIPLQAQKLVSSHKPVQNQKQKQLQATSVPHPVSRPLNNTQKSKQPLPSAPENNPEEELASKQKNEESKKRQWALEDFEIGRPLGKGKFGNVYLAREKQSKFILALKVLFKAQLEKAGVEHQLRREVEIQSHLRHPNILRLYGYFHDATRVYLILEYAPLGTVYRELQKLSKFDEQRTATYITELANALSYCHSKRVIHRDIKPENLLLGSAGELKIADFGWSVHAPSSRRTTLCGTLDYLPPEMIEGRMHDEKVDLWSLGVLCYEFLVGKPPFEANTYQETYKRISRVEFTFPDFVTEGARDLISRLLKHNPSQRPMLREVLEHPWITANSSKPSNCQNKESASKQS
Summary of the method: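 AURKA degradation read by western blot: band signal, fluorescent or chemiluminescent, curve-fitted to derive DC50. Cells were Jurkat, plated at 1×10^6 cells/500 µL with compound, then lysed and blotted onto nitrocellulose, primary antibody overnight at 4°C.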

H82 cells = test: cells; type: cell-based; conditions: Homo sapiens
Summary of the method: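 After 6 days' compound treatment at 37 °C (final DMSO 0.1%, RPMI1640/10% FBS), viable H82 cells were quantified by ATP-dependent CellTiter-Glo luminescence. Remaining activity was calculated against DMSO and medium wells, and a sigmoidal fit gave IC50.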

[1] = NCI-H82, read-out: IC50 in H82 Cells
[2] = NCI-H82, H82 cells, 4000 cells/well, CellTiter-Glo, read-out: IC50 in H82 Cells

SMILES	Percentage of AURKA Degradation Induced by 100 nM Compound in Jurkat Cells (AURKA)	Percentage of AURKA Degradation Induced by 1 µM Compound in Jurkat Cells (AURKA)	IC50 (H82 cells; [1]) [nM]	IC50 (H82 cells; [2]) [nM]
O=C1CCN(c2ccc(N3CCC4(CC3)CN(C3CN(c5ccc(Nc6ncc7c(n6)-c6ccc(Cl)cc6C(c6c(F)cccc6F)=NC7)cc5)C3)CCO4)nc2)C(=O)N1 [Compound A352]	+++ (Degradation > 70%)	+++ (Degradation > 70%)	< 1000	–
O=C1CCN(c2ccc(N3CCC4(CC3)CN(CC3CN(c5ccc(Nc6ncc7c(n6)-c6ccc(Cl)cc6C(c6c(F)cccc6F)=NC7)cc5)C3)CCO4)nc2)C(=O)N1 [Compound A353]	+++ (Degradation > 70%)	+++ (Degradation > 70%)	–	< 1000
O=C1CCN(c2ccc(N3CCC4(CC3)CCN(C3CCN(c5ccc(Nc6ncc7c(n6)-c6ccc(Cl)cc6C(c6c(F)cccc6F)=NC7)cc5)CC3)CCO4)nc2)C(=O)N1 [Compound A355]	+++ (Degradation > 70%)	+++ (Degradation > 70%)	< 1000	–
O=C1CCN(c2ccc(N3CC4COCC(C3)N4C3CCN(c4ccc(Nc5ncc6c(n5)-c5ccc(Cl)cc5C(c5c(F)cccc5F)=NC6)cc4)CC3)nc2)C(=O)N1 [Compound A356]	+++ (Degradation > 70%)	+++ (Degradation > 70%)	–	< 1000
O=C1CCN(c2ccc(N3CCC(N4C5COCC4CN(c4ccc(Nc6ncc7c(n6)-c6ccc(Cl)cc6C(c6c(F)cccc6F)=NC7)cc4)C5)CC3)nc2)C(=O)N1 [Compound A357]	++ (30% < Degradation ≤ 70%)	+ (Degradation ≤ 30%)	–	< 1000
O=C1CCN(c2ccc(N3CC4COCC(C3)N4CC3CN(c4ccc(Nc5ncc6c(n5)-c5ccc(Cl)cc5C(c5c(F)cccc5F)=NC6)cc4)C3)nc2)C(=O)N1 [Compound A358]	+++ (Degradation > 70%)	+++ (Degradation > 70%)	–	< 1000
O=C1CCN(c2ccc(N3CC4COCC(C3)N4CC3CCN(c4ccc(Nc5ncc6c(n5)-c5ccc(Cl)cc5C(c5c(F)cccc5F)=NC6)cc4)CC3)nc2)C(=O)N1 [Compound A359]	+++ (Degradation > 70%)	+++ (Degradation > 70%)	–	< 1000
O=C1CCN(c2ccc(N3CC4COCC(C3)N4C3CC4(CCN(c5ccc(Nc6ncc7c(n6)-c6ccc(Cl)cc6C(c6c(F)cccc6F)=NC7)cc5)CC4)C3)nc2)C(=O)N1 [Compound A360]	+++ (Degradation > 70%)	+++ (Degradation > 70%)	–	< 1000
O=C1CCN(c2ccc(N3CCC4(CC3)CC(N3CCN(C56CC(Nc7ncc8c(n7)-c7ccc(Cl)cc7C(c7c(F)cccc7F)=NC8)(C5)C6)CC3)CO4)nc2)C(=O)N1 (stereo not drawn) [Compound A361]	+++ (Degradation > 70%)	+++ (Degradation > 70%)	–	< 1000
Cn1nc(N2CCC(=O)NC2=O)c2ccc(N3CC4COCC(C3)N4C3CCN(c4ccc(Nc5ncc6c(n5)-c5ccc(Cl)cc5C(c5c(F)cccc5F)=NC6)cc4)CC3)cc21 [Compound A362]	+++ (Degradation > 70%)	++ (30% < Degradation ≤ 70%)	< 1000	–
COc1cccc(F)c1C1=NCc2cnc(Nc3ccc(N4CCN(C5COC6(CCN(c7ccc(N8CCC(=O)NC8=O)cn7)CC6)C5)CC4)cc3)nc2-c2ccc(Cl)cc21 (stereo not drawn) [Compound A363]	+++ (Degradation > 70%)	+++ (Degradation > 70%)	–	< 1000
Cn1nc(N2CCC(=O)NC2=O)c2cccc(N3CCC4(CC3)CC(N3CCN(c5ccc(Nc6ncc7c(n6)-c6ccc(Cl)cc6C(c6c(F)cccc6F)=NC7)cc5)CC3)CO4)c21 (stereo not drawn) [Compound A364]	+++ (Degradation > 70%)	+++ (Degradation > 70%)	< 1000	–

Source: patent EP4818168A1, “FUSED RING COMPOUND, PHARMACEUTICAL COMPOSITION THEREOF AND USE THEREOF” (priority 2023, dated 2025)
